Laboratory results as given in article PMC5217372, “Activation of SsoPK4, an Archaeal eIF2α Kinase Homolog, by Oxidized CoA” (Proteomes, 2015).
Where “and” joins values, the source holds several entries; their conditions need not be identical. Identical values can stand only once.

How the values were obtained:
rSsoPK4(284–635) [1] = molecular target: T1, rSsoPK4(284–635) (Saccharolobus solfataricus, UniProt Q97U41); assay: Filter paper [γ-32P]ATP kinase assay with MBP as phosphoacceptor, ATP routinely 100 µM, 5 mM MgCl2 and 5 mM MnCl2, 50 mM MOPS pH 7.0, 65 °C, in the presence of nucleotide effectors.; format: biochemical
T1 construct: gene SSO3182; residues 284–635 (catalytic and part of central helical repeat domain), N-terminal S-tag, C-terminal 33-residue fusion domain with polyhistidine motif, pET-29b, expressed in E. coli
T1 sequence (Q97U41 284-635): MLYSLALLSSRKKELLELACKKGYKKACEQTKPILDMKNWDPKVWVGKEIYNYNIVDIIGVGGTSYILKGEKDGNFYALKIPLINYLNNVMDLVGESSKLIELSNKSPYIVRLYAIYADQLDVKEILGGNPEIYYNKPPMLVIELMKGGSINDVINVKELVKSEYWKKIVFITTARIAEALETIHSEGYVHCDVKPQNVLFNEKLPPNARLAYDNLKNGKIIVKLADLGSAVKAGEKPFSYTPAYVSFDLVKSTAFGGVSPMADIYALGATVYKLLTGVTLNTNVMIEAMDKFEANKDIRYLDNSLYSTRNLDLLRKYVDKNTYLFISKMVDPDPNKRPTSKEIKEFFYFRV
Procedure: (§1) Protein kinase activity was routinely assayed by the filter paper method of Corbin and Reimann as modified by Lower and Kennelly. The final volume of the assays was typically 50 μL. The quantity of rSsoPK4 assayed ranged from 0.1 to 5.0 µg. Both MgCl2 and MnCl2 were included at a final concentration of 5 mM each. The final concentration of [γ-^32P]ATP was 100 μM. The specific activity of the [γ-^32P]ATP generally ranged from 2 to 5 × 10^15 cpm/mol. Phosphoacceptor proteins were generally present at a concentration of 0.5–1.0 µg/µL. The assay mixture was typically incubated for a period of 30 min to one hour at 65 °C in 50 mM MOPS pH 7.0. On occasion, the proteins within the assay mixture were resolved by SDS-PAGE in order to identify the specific polypeptides that were phosphorylated. Radiolabeled species were visualized using an Instant Imager from Packard (Downers Grove, IL, USA).

rSsoPK4(284–635) [2] = assay: Protein kinase activity assay (filter paper method, [γ-32P]ATP, 65 °C) of rSsoPK4(284–635); format: biochemical, Sulfolobus solfataricus; conditions: for Vmax in the presence of CoAS-SCoA: CoAS-SCoA 1 mM; for effect on protein kinase activity toward MBP: MBP substrate, compounds at 1 mM (Figure 8); for Inhibitor: effector at 100 µM, MBP as phosphoacceptor substrate; for Km / Vmax toward protein substrate: no CoAS-SCoA, label = protein substrate, estimated
Procedure: as §1

[3] = test system: rSsoPK4(284–635) T592D/T606D/S611D; assay: Protein kinase activity assay of rSsoPK4(284–635) T592D/T606D/S611D; format: biochemical, Sulfolobus solfataricus; conditions: for Km / Vmax toward protein substrate: no CoAS-SCoA, label = protein substrate
Procedure: Figure 9 CoAS-SCoA activates rSsoPK4(284–635), but not rSsoPK4(284–635) T592D/T606D/S611D, in a concentration-dependent manner. The activity of rSsoPK4(284–635) (OPEN […]) and rSsoPK4(284–635) T592D/T606D/S611D (OPEN CIRCLES) were assayed, in duplicate, in the presence of the indicated concentrations of CoAS-SCoA using MBP as substrate. Shown is a plot of the activity relative to that measured in the absence of CoAS-SCoA, which was normalized as 1.0, plus or minus mean average deviation.

[4] = test system: rSsoPK4(284–635)T606D/S611D; assay: Protein kinase activity assay of rSsoPK4(284–635)T606D/S611D; format: biochemical, Sulfolobus solfataricus
[5] = substrate: Nc1ncnc2c1ncn2[C@@H]1O[C@H](COP(=O)(O)OP(=O)(O)OP(=O)(O)O)[C@@H](O)[C@H]1O; assay: Filter paper [32P]phosphate incorporation kinase assay with varied [γ-32P]ATP and mixed histones fixed at 70 µM as phosphoacceptor, 5 mM MgCl2 and 5 mM MnCl2, 50 mM MOPS pH 7.0, 65 °C; Lineweaver-Burk plot.; format: biochemical
Procedure: Protein kinase activity was routinely assayed by the filter paper method of Corbin and Reimann [18] as modified by Lower and Kennelly [19]. The final volume of the assays was typically 50 μL. The quantity of rSsoPK4 assayed ranged from 0.1 to 5.0 µg. Both MgCl2 and MnCl2 were included at a final concentration of 5 mM each. The final concentration of [γ-^32P]ATP was 100 μM. The specific activity of the [γ-^32P]ATP generally ranged from 2 to 5 × 10^15 cpm/mol. Phosphoacceptor proteins were generally present at a concentration of 0.5–1.0 µg/µL. The assay mixture was typically incubated for a period of 30 min to one hour at 65 °C in 50 mM MOPS pH 7.0. On occasion, the proteins within the assay mixture were resolved by SDS-PAGE in order to identify the specific polypeptides that were phosphorylated. Radiolabeled species were visualized using an Instant Imager from Packard (Downers Grove, IL, USA).

Molecule `Nc1ncnc2c1ncn2[C@@H]1O[C@H](CO)[C@H]2OP(=O)(O)O[C@H]21` [2ʹ,3ʹ-cAMP, 2ʹ,3ʹ-cyclic AMP] has an IC50 (rSsoPK4(284–635) [1]) of 1550 µM.

`Nc1ncnc2c1ncn2[C@@H]1O[C@H](CO)[C@@H](OP(=O)(O)O)[C@H]1O` [3ʹ-AMP, adenosine 3'-monophosphate] was tested, and the IC50 (rSsoPK4(284–635) [1]) was 2100 µM.

For `Nc1ncnc2c1ncn2[C@@H]1O[C@H](COP(=O)(O)O)[C@@H](O)[C@H]1O` [5'AMP, adenosine 5'-monophosphate], the IC50 (rSsoPK4(284–635) [1]) was 920 µM.

Molecule `Nc1ncnc2c1ncn2[C@@H]1O[C@H](COP(=O)(O)OP(=O)(O)O)[C@@H](O)[C@H]1O` [ADP, adenosine 5'-diphosphate] has an IC50 (rSsoPK4(284–635) [1]) of 190 µM.

`CC(C)(COP(=O)(O)OP(=O)(O)OC[C@H]1O[C@@H](n2cnc3c(N)ncnc32)C(O)[C@H]1OP(=O)(O)O)[C@@H](O)C(=O)NCCC(=O)NCCSSCCNC(=O)CCNC(=O)[C@H](O)C(C)(C)COP(=O)(O)OP(=O)(O)OC[C@H]1O[C@@H](n2cnc3c(N)ncnc32)C(O)[C@H]1OP(=O)(O)O` (stereo partly drawn) [CoAS-SCoA, oxidized Coenzyme A] was tested, and the “Vmax in the presence of CoAS-SCoA” value (rSsoPK4(284–635) [2]; protein substrate MBP (3.7 without)) was 4.8 nmol/min/mg, the “Vmax in the presence of CoAS-SCoA” value (rSsoPK4(284–635) [2]; protein substrate aIF2α (4.2 without)) was 2.9 nmol/min/mg and the “effect on protein kinase activity toward MBP” value (rSsoPK4(284–635) [2]) was “stimulate protein kinase activity toward MBP several-fold”. For the same molecule, the “shift (lowering) of Km for aIF2α by oxidized CoA” value (rSsoPK4(284–635) [2]; from ~48 µM in absence to ~6 µM in presence of oxidized CoA) was ~ 8 fold, the “sensitivity of activity to oxidized CoA” value ([3]; MBP as substrate (Figure 9)) was “no longer sensitive” and the “sensitivity of activity to oxidized CoA” value [4] was “no longer sensitive”.

In the case of `NC(=O)C1=CN([C@@H]2O[C@H](COP(=O)(O)OP(=O)(O)OC[C@H]3O[C@@H](n4cnc5c(N)ncnc54)[C@H](OP(=O)(O)O)[C@@H]3O)[C@@H](O)[C@H]2O)C=CC1` [NADPH], the Inhibitor (rSsoPK4(284–635) [2]) is reported as “N (Where a change of ±20% or less in enzyme activity was observed, the compound was designated as non-inhibitory (N))”.

`NC(=O)c1ccc[n+]([C@@H]2O[C@H](COP(=O)([O-])OP(=O)(O)OC[C@H]3O[C@@H](n4cnc5c(N)ncnc54)[C@H](OP(=O)(O)O)[C@@H]3O)[C@@H](O)[C@H]2O)c1` [NADP^+] was tested, and the Inhibitor (rSsoPK4(284–635) [2]) was “N (Where a change of ±20% or less in enzyme activity was observed, the compound was designated as non-inhibitory (N))”.

With `NC(=O)c1ccc[n+]([C@@H]2O[C@H](COP(=O)([O-])OP(=O)(O)OC[C@H]3O[C@@H](n4cnc5c(N)ncnc54)[C@H](O)[C@@H]3O)[C@@H](O)[C@H]2O)c1` [NAD^+] the Inhibitor (rSsoPK4(284–635) [2]) was “N (Where a change of ±20% or less in enzyme activity was observed, the compound was designated as non-inhibitory (N))”.

In the case of `Nc1ncnc2c1ncn2[C@@H]1O[C@H](COP(=O)(O)OS(=O)(=O)O)[C@@H](OP(=O)(O)O)[C@H]1O` [Phosphoadenosine phosphosulfate], the Inhibitor (rSsoPK4(284–635) [2]) is reported as “N (Where a change of ±20% or less in enzyme activity was observed, the compound was designated as non-inhibitory (N))”.

With `C[S+](CC[C@H](N)C(=O)[O-])C[C@H]1O[C@@H](n2cnc3c(N)ncnc32)[C@H](O)[C@@H]1O` (stereo partly drawn) [S-Adenosyl-Methionine] the Inhibitor (rSsoPK4(284–635) [2]) was “N (Where a change of ±20% or less in enzyme activity was observed, the compound was designated as non-inhibitory (N))”.

In the case of `Nc1ncnc2c1ncn2[C@@H]1O[C@H](CSCC[C@H](N)C(=O)O)[C@@H](O)[C@H]1O` [S-Adenosyl-homocysteine], the Inhibitor (rSsoPK4(284–635) [2]) is reported as “N (Where a change of ±20% or less in enzyme activity was observed, the compound was designated as non-inhibitory (N))”.

`Cc1ncc(C[n+]2csc(CCOP(=O)(O)OP(=O)(O)O)c2C)c(N)n1` [Thiamine-PPi] was tested, and the Inhibitor (rSsoPK4(284–635) [2]) was “N (Where a change of ±20% or less in enzyme activity was observed, the compound was designated as non-inhibitory (N))”.

With Oxidized glutathione the “effect on protein kinase activity toward MBP” value (rSsoPK4(284–635) [2]) was “no effect”.

B1: MBP: myelin basic protein, exogenous phosphoacceptor substrate (protein, UniProt P02687 1-169, looked up)
Myelin basic protein: AAQKRPSQRSKYLASASTMDHARHGFLPRHRDTGILDSLGRFFGSDRGAPKRGSGKDGHHAARTTHYGSLPQKAQGHRPQDENPVVHFFKNIVTPRTPPPSQGKGRGLSLSRFSWGAEGQKPGFGYGGRASDYKSAHKGLKGHDAQGTLSKIFKLGGRDSRSGSPMARR
For B1, the Km (rSsoPK4(284–635) [2]) was 145 µM, the “Vmax toward protein substrate” value (rSsoPK4(284–635) [2]) was 3.7 nmol/min/mg and the Km [3] was 17 µM. For the same molecule, the “Vmax toward protein substrate” value [3] was 4.2 nmol/min/mg.

B2: aIF2α: recombinant protein product of ORF sso1050, archaeal homologue of eIF2α from S. solfataricus (protein, UniProt Q97Z79 1-266, looked up)
Translation initiation factor …: MIYSRSKLPSEGEILIATVKQVFDYGSYVSLDEYGGLQAFLPWSEVSSKWVKNIRDVLKENRKVIVKVIRVDRRKGTVDVSLKKVTDDERRKKNLQWKKIQRLDKILELVSQKLKLSEKDAWEQVAWKLEAKYGDPITAIEKAVKEGEKILIDAGVPEIWVKPLLEEASKHAEERKVKMSGLITVRTNEPLGVEKIKEVISKALENIEQDYESLLNIKIYTIGAPRYRVDVVGTNPKEASEALNQIISNLIKIGKEENVDISVVKK
In the case of B2, the Km (rSsoPK4(284–635) [2]) is reported as ~48 µM and 48 µM, the “Vmax toward protein substrate” value (rSsoPK4(284–635) [2]) is reported as 4.2 nmol/min/mg and the Km [3] is reported as 4 µM. The “Vmax toward protein substrate” value [3] was 1.9 nmol/min/mg.

B3: rSsoPK4(284–635) (Saccharolobus solfataricus P2) (protein)
chain: MLYSLALLSSRKKELLELACKKGYKKACEQTKPILDMKNWDPKVWVGKEIYNYNIVDIIGVGGTSYILKGEKDGNFYALKIPLINYLNNVMDLVGESSKLIELSNKSPYIVRLYAIYADQLDVKEILGGNPEIYYNKPPMLVIELMKGGSINDVINVKELVKSEYWKKIVFITTARIAEALETIHSEGYVHCDVKPQNVLFNEKLPPNARLAYDNLKNGKIIVKLADLGSAVKAGEKPFSYTPAYVSFDLVKSTAFGGVSPMADIYALGATVYKLLTGVTLNTNVMIEAMDKFEANKDIRYLDNSLYSTRNLDLLRKYVDKNTYLFISKMVDPDPNKRPTSKEIKEFFYFRV
notes: residues 284–635 (catalytic and part of central helical repeat domain), N-terminal S-tag, C-terminal 33-residue fusion domain with polyhistidine motif, pET-29b, expressed in E. coli
B3 was tested, and the Km [5] was 100 µM.
